# * marks the point of attachment. Octanoyl = CCCCCCCC(=O)*
# How the values were obtained:
# [1] = system: A. baumannii 801; assay: Immunosuppressed rat pneumonia infection model; format: in vivo; conditions: 5 mg/kg of rifampicin and 3 mg/kg or 6 mg/kg of CMP1401 (intravenous infusion 1 hour) vs 32 mg/kg colistin
# Description: The results are illustrated in FIG. 16.
# 32 mg/kg of colistin is known as a clinical dose used for treatment of A. baumannii 801. Therefore, an effect observed in a case where 32 mg/kg of colistin was used alone may be a criterion for comparing effectiveness of co-administration of CMP1401 and an antibacterial agent in this example.
# [2] = system: Kp NDM-1; assay: MIC assay, sensitizing effect of peptide on rifampicin (CRE); format: cell-based, Klebsiella pneumoniae; conditions: FIG. 9F; Kp NDM-1 (CRE); peptide 4 ug/ml
# Description: (§1) All MIC assay experiments were performed using the Clinical and Laboratory Standards Institute (CLSI) guidelines (Clinical & Laboratory Standards Institute: CLSI Guidelines, 2017). Bacterial cells cultured overnight were diluted to 0.05 McFarland standard using McFarland (KIT […] PLUS INSTRUMENT, Biomerieux) in Muller Hinton II Broth (cation-adjusted) (Difco). The cells were inoculated at 1.5×10^5 CFU per 200 μL solution of each well in a 96-well plate. The peptide and the antibiotic were prepared using 2-fold serially diluted concentrations. […] Incubation was performed at 37° C. for 18 hours, and then absorbance was measured at 600 nm using an EPOCH2 microplate reader (BioTek, Winooski, USA) to calculate a MIC value. The MIC value was defined as a concentration of the antibiotic or peptide at which bacterial growth was inhibited to a level of lower than 10% growth of the positive control. Fold reduction was calculated using the following expression.
# (§2) ATCC 25922, A.b. ATCC 17978, K.p. ATCC 700603, and P.a. ATCC 27853, or CRE (E.c. NDM-1, K.p. NDM-1, or K.p. KPC) (FIGS. 9 and 10).
# [3] = system: E.c. ATCC 25922, A.b. ATCC 17978, K.p. ATCC 700603, P.a. ATCC 27853, or CRE (E.c. NDM-1, K.p. NDM-1, or K.p. KPC); assay: MIC assay, comparison with L9P on rifampicin or colistin; format: cell-based; conditions: FIGS. 9 and 10
# Description: as §1, §2
# [4] = system: P.a. ATCC 27853; assay: MIC assay, sensitizing effect of peptide on rifampicin or colistin; format: cell-based, Pseudomonas aeruginosa; conditions: peptide 4 ug/ml
# Description: as §1, §2
# [5] = system: Acinetobacter baumannii ATCC 17978; assay: MIC assay, sensitizing effect of peptide on antibiotics; format: cell-based
# [6] = system: A. baumannii 801; assay: Immunosuppressed mouse pneumonia infection survival model; format: in vivo
# Description: To induce neutropenia in 6-week-old female ICR (CD-1) mice weighing 23 g to 27 g (Orient Bio, Seongnam, Korea), the mice were treated (subcutaneously injected) with 150 mg/kg and 100 mg/kg of cyclophosphamide (CP), respectively, 4 days and 1 day before pneumonia infection. For a mouse model for survival analysis, the mice were infected intranasally with 1×10^8 CFU A. baumannii 801; and for a mouse model for colony number counting, the mice were infected intranasally with 1×10^6 CFU A. baumannii 801.
# The sensitizing peptide CMP1401 of the present disclosure was administered by intraperitoneal injection 4 times daily for 2 days (25 mg/kg QID). Six mice were used per each group.
# [7] = system: K.p. KPC; assay: MIC assay, sensitizing effect of peptide on rifampicin or colistin (CRE); format: cell-based, Klebsiella pneumoniae; conditions: peptide 4 ug/ml
# Description: as §1, §2
# [8] = system: Ec NDM-1; assay: MIC assay, sensitizing effect of peptide on rifampicin (CRE); format: cell-based, E. coli; conditions: FIG. 9E; Ec NDM-1 (CRE); peptide 4 ug/ml
# Description: as §1, §2
substance,measurement,setting,value
OctA-KKALKLAKKPLKLLK-NH2 (Octanoyl-KKALKLAKKPLKLLK-NH2) [CMP1401],effect of co-administration with rifampicin compared with colistin,[1],comparable to that observed in a case where 32 mg/kg of colistin was administered
same,Decreased MIC value of rifampicin at peptide concentration of 4 ug/ml,[2],7.8 ng/mL
same,sensitizing effect on rifampicin or colistin compared with L9P,[3],very good sensitizing effect
same,Decreased MIC value of rifampicin at peptide concentration of 4 ug/ml,[4]; FIG. 9D,0.25 µg/mL
same,Decreased MIC value of colisitin at peptide concentration of 4 ug/ml,[4]; FIG. 10B,0.016 µg/mL
same,Decreased MIC value of rifampicin at peptide concentration of 4 ug/ml,"[5]; FIG. 9B, A.b. ATCC 17978, peptide 4 ug/ml",0.031 µg/mL
same,sensitizing effect for fusidic acid,"[5]; peptide 0.31 μM, vs fusidic acid alone",250 times
same,sensitizing effect for novobiocin,"[5]; peptide 0.31 μM, vs novobiocin alone",16 times
same,sensitizing effect for rifampicin,"[5]; peptide 0.31 μM, vs rifampicin alone",64 times
same,survival rate,"[6]; 2.5 mg/kg of rifampicin and 25 mg/kg of CMP1401 (intraperitoneal, QID) co-administered",50%
same,survival rate higher than rifampicin alone,[6]; 2.5 mg/kg rifampicin + 25 mg/kg CMP1401 vs 2.5 mg/kg rifampicin alone,about 33.3%
same,"survival / antibacterial activity, peptide administered alone",[6]; CMP1401 administered alone,all mice died
same,Decreased MIC value of rifampicin at peptide concentration of 4 ug/ml,[7]; FIG. 9G,7.8 ng/mL
same,Decreased MIC value of colisitin at peptide concentration of 4 ug/ml,[7]; FIG. 10C,0.25 µg/mL
same,Decreased MIC value of rifampicin at peptide concentration of 4 ug/ml,[8],4 ng/mL
